In assay [1] the target is T1, Cbl-b (Homo sapiens, UniProt Q13191). Briefly: Cbl-b inhibition assay (Cbl-b activity assay, FRET, Biological Example 1; 100 mM NaCl, 60 nM Src kinase). It is filed as biochemical. The following applies: upper bound stated in text lists; read-out: IC50 values in the Cbl-b inhibition assay of Biological Example 1. The procedure, abridged: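 Steps: Src kinase phosphorylates N-terminal biotinylated Avi-tagged Cbl-b; phosphorylated Cbl-b binds Bodipy-fluorescein ubiquitin-loaded UbcH5B; streptavidin-terbium on Cbl-b sits close to the fluorescein label, producing FRET. Inhibitors block UbcH5B-Ub binding.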

Assay [2] has as its target T1, Cbl-b. Nature of the assay: Cbl-b activity assay (Cbl-b inhibition assay), TR-FRET of Cbl-b interaction with UbcH5B-Ub. It is filed as biochemical. In outline:
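Compound-treated Cbl-b was incubated 1.5 h with Src kinase (60 nM final; 30 nM for asterisked values, which also used 50 mM instead of 100 mM NaCl), 1 mM ATP and 5 mM MgCl2. Binding to fluorescent Ub-loaded UbcH5B (C85K mutant) was then read by TR-FRET after 1 h more.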

The target in a further assay is Cbl-b (residues 36-427) (Homo sapiens, UniProt Q13191). Briefly: Cbl-b binding assay (SPR, Biacore T200). The following applies: 20° C., 1:1 binding model. The method, then: SPR data was collected on a Biacore T200 (GE Healthcare) using a NeutrAvidin (Invitrogen) capture surface that was generated on a polycarboxylate hydrogel sensor chip of medium charge density (XanTec Bioanalytics GmbH) at 20° C. The surface was prepared using 20 mM HEPES, pH 7.5, 100 mM NaCl, 0.5 mM TCEP, 0.01% Triton X-100 as the immobilization buffer. Neutravidin was coupled to the sensor chip through EDC/NHS amine coupling. All steps were performed using a flow rate of 10 μl/min. First, the chip was preconditioned with a 3-min injection of 1 M NaCl, 0.1 M Borate followed by a 10-min equilibration in immobilization buffer. The surface was activated by a 5-min injection of 100 mM EDC/50 mM NHS. Next, 250 μg/mL NeutrAvidin buffered in 10 mM sodium acetate buffer, pH 5.0 was injected over the surface for 2 min. The surface was deactivated with 1 M Tris, pH 8.5 for 7 min then re-equilibrated in immobilization buffer for 7 min. […] Flow cell 1 served as a reference surface and was prepared without protein. All binding measurements were made in 20 mM HEPES, pH 7.5, 100 mM NaCl, 0.5 mM TCEP, 0.01% Triton X-100, 2% DMSO (referred as assay buffer) at 20° C. Compounds, prepared in assay buffer, were diluted from atop concentration of either 100 μM or 50 μM using either a 2- or 3-fold dilution scheme containing 8 or 10 points. Samples were injected for 50 s at 50 μl/min. Dissociation time varied from 90-180 s, depending on anticipated potency. The surface was regenerated by injection of 0.3 M NaCl, prepared in assay buffer for 20 s at 10 μl/min. Positive and negative control samples were run between each compound to monitor surface integrity.
Column marked with an asterisk (*) were tested as described above with assay buffer containing 50 mM NaCl instead of 100 mM NaCl and 30 nM Src kinase instead of 60 nM Src kinase. The resulting data for the Cbl-b binding assay was solvent corrected and double referenced prior to analysis. All data were globally fit to a steady-state affinity and kinetic binding model where applicable). Fit parameters were derived from a 1:1 binding model using the Biacore T200 Evaluation Software V2.0 (GE Healthcare) (Table 2).

[3] abbreviates: * assay buffer containing 50 mM NaCl instead of 100 mM NaCl and 30 nM Src kinase instead of 60 nM, read-out: Cbl-b activity IC50 (μM)*.
Where [4] appears, read: assay buffer with 100 mM NaCl, 60 nM Src kinase, read-out: Cbl-b activity IC50.

Sequence of Cbl-b (residues 36-427) (Q13191 36-427): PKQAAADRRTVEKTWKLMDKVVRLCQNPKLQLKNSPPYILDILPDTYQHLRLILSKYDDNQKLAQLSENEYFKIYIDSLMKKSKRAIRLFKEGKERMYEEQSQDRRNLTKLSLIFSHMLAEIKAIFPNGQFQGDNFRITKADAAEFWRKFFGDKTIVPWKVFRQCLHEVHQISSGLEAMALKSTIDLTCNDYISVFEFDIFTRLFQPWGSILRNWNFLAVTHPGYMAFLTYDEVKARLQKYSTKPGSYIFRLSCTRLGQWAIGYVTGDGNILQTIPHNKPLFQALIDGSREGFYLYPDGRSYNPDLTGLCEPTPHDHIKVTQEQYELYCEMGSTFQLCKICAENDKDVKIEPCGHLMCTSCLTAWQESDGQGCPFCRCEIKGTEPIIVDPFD
T1 sequence (Q13191 36-427): as above

Consider `CC(Sc1nncn1C)c1cccc(NC(=O)c2ccc3c(n2)CCCC3)c1` (stereo not shown) [Compound 23, N-(3-(1-((4-Methyl-4H-1,2,4-triazol-3-yl)thio)ethyl)phenyl)-5,6,7,8-tetrahydroquinoline-2-carboxamide], for which the IC50 on Cbl-b [1] is at most 10 µM; at Cbl-b [2] (setting [3]), 1 to 3 µM; on Cbl-b [2] (setting [4]) it was 1 to 3 µM. The molecule also yielded a Kd on Cbl-b (residues 36-427) of 3 to 10 µM.

With `Cc1cc(C(=O)Nc2cccc([C@H](C)Sc3nncn3C)c2)ncc1Cl` [Compound 34, (S)-5-Chloro-4-methyl-N-(3-(1-((4-methyl-4H-1,2,4-triazol-3-yl)thio)ethyl)phenyl)picolinamide], the results for the IC50 on Cbl-b [1], on Cbl-b [2] (setting [3]) and on Cbl-b [2] (setting [4]) were at most 0.5 µM, 0.301 to 1 µM and 0.301 to 1 µM, respectively. Moreover, at Cbl-b (residues 36-427), the Kd was 1 to 3 µM.

Turning to `C[C@H](Sc1nncn1C)c1cccc(NC(=O)c2cc(C(F)(F)F)c(Cl)cn2)c1` [Compound 40, (S)-5-Chloro-N-(3-(1-((4-methyl-4H-1,2,4-triazol-3-yl)thio)ethyl)phenyl)-4-(trifluoromethyl)picolinamide], the results for the IC50 at Cbl-b [1], at Cbl-b [2] (setting [3]) and on Cbl-b [2] (setting [4]) were at most 10 µM, 3 to 10 µM and 1 to 3 µM, respectively. Moreover, on Cbl-b (residues 36-427), the Kd is 3 to 10 µM.

For the molecule `Cc1nc(C(=O)Nc2cccc([C@H](C)Sc3nncn3C)c2)cs1` [Compound 41, (S)-2-Methyl-N-(3-(1-((4-methyl-4H-1,2,4-triazol-3-yl)thio)ethyl)phenyl)thiazole-4-carboxamide], the values for the IC50 at Cbl-b [1] and at Cbl-b [2] (setting [4]) were at most 10 µM and 1 to 3 µM, respectively. For the same molecule, the Kd on Cbl-b (residues 36-427) was in the range of 1 to 3 µM.

For the molecule `C[C@H](Sc1nncn1C)c1cccc(NC(=O)c2cccc(C(F)(F)F)c2F)c1` [Compound 42, (S)-2-Fluoro-N-(3-(1-((4-methyl-4H-1,2,4-triazol-3-yl)thio)ethyl)phenyl)-3-(trifluoromethyl)benzamide], the IC50 on Cbl-b [1] is at most 1 µM; on Cbl-b [2] (setting [4]), 0.301 to 1 µM. Besides, the Kd on Cbl-b (residues 36-427) was in the range of 0.301 to 1 µM.

In the case of `COc1c(C(=O)Nc2cccc([C@H](C)Sc3nncn3C)c2)cccc1C(F)(F)F` [Compound 43, (S)-2-Methoxy-N-(3-(1-((4-methyl-4H-1,2,4-triazol-3-yl)thio)ethyl)phenyl)-3-(trifluoromethyl)benzamide], the IC50 is at most 10 µM on Cbl-b [1] and 3 to 10 µM at Cbl-b [2] (setting [4]). Further, at Cbl-b (residues 36-427), the Kd is above 10 µM.

With `C[C@H](Sc1nncn1C)c1cccc(NC(=O)c2cccc(-c3ccn[nH]3)c2)c1` [Compound 44, (S)-N-(3-(1-((4-Methyl-4H-1,2,4-triazol-3-yl)thio)ethyl)phenyl)-3-(1H-pyrazol-5-yl)benzamide], the IC50 on Cbl-b [1] was at most 10 µM; at Cbl-b [2] (setting [4]), 3 to 10 µM. This molecule also returned a Kd at Cbl-b (residues 36-427) of 3 to 10 µM.

Regarding `C[C@H](Sc1nncn1C)c1cccc(NC(=O)c2cccc(-c3ccnn3C)c2)c1` [Compound 45, 3-(1-Methyl-1H-pyrazol-5-yl)-N-[3-[(1S)-1-[(4-methyl-4H-1,2,4-triazol-3-yl)sulfanyl]ethyl]phenyl]benzamide], the IC50 at Cbl-b [1] is at most 10 µM; on Cbl-b [2] (setting [4]), 3 to 10 µM. Moreover, the Kd at Cbl-b (residues 36-427) lay within 3 to 10 µM.

Turning to `C[C@H](Sc1nncn1C)c1cccc(NC(=O)c2cc(CCO)ccn2)c1` [Compound 46, (S)-4-(2-Hydroxyethyl)-N-(3-(1-((4-methyl-4H-1,2,4-triazol-3-yl)thio)ethyl)phenyl)picolinamide], the results for the IC50 on Cbl-b [1] and at Cbl-b [2] (setting [4]) were at most 10 µM and 1 to 3 µM, respectively. The dissociation constant Kd at Cbl-b (residues 36-427) was in the range of 3 to 10 µM.

For `CNc1cccc(C(=O)Nc2cccc([C@H](C)Sc3nncn3C)c2)c1` [Compound 47, (S)-N-(3-(1-((4-Methyl-4H-1,2,4-triazol-3-yl)thio)ethyl)phenyl)-3-(methylamino)benzamide], the IC50 was at most 10 µM at Cbl-b [1] and 3 to 10 µM on Cbl-b [2] (setting [4]). For the same molecule, the Kd at Cbl-b (residues 36-427) fell in the range of 3 to 10 µM.

For `C[C@H](Sc1nncn1C)c1cccc(NC(=O)c2nc(C(F)(F)F)ccc2N)c1` [Compound 49, (S)-3-Amino-N-(3-(1-((4-methyl-4H-1,2,4-triazol-3-yl)thio)ethyl)phenyl)-6-(trifluoromethyl)picolinamide], the figures for the IC50 at Cbl-b [1] and on Cbl-b [2] (setting [4]) were at most 10 µM and 1 to 3 µM, respectively. On Cbl-b (residues 36-427), the Kd was 1 to 3 µM.

For the molecule `Cc1cc(C(=O)Nc2cccc([C@H](C)Sc3nncn3C)c2)[nH]c(=O)c1` [Compound 50, (S)-4-Methyl-N-(3-(1-((4-methyl-4H-1,2,4-triazol-3-yl)thio)ethyl)phenyl)-6-oxo-1,6-dihydropyridine-2-carboxamide], the figures for the IC50 on Cbl-b [1] and at Cbl-b [2] (setting [4]) were at most 10 µM and 3 to 10 µM, respectively. The same molecule yielded a Kd at Cbl-b (residues 36-427) above 10 µM.

As for `Cc1cnc(C(=O)Nc2cccc([C@H](C)Sc3nncn3C)c2)cc1C(F)(F)F` [Compound 52, (S)-5-methyl-N-(3-(1-((4-methyl-4H-1,2,4-triazol-3-yl)thio)ethyl)phenyl)-4-(trifluoromethyl)picolinamide], the IC50 was at most 10 µM on Cbl-b [1] and 3 to 10 µM at Cbl-b [2] (setting [4]). This molecule came in with a Kd at Cbl-b (residues 36-427) above 10 µM.

For the molecule `Cc1cnc(C(=O)Nc2cccc([C@H](C)Sc3nncn3C)c2)cc1C1CC1` [Compound 53, (S)-4-cyclopropyl-5-methyl-N-(3-(1-((4-methyl-4H-1,2,4-triazol-3-yl)thio)ethyl)phenyl)picolinamide], the results for the IC50 at Cbl-b [1] and on Cbl-b [2] (setting [4]) were at most 10 µM and 3 to 10 µM, respectively. At Cbl-b (residues 36-427), this molecule yielded a Kd of 3 to 10 µM.

On to `CC(=O)Nc1ccnc(C(=O)Nc2cccc([C@H](C)Sc3nncn3C)c2)c1` [Compound 59, (S)-4-acetamido-N-(3-(1-((4-methyl-4H-1,2,4-triazol-3-yl)thio)ethyl)phenyl)picolinamide], for which the IC50 was at most 10 µM at Cbl-b [1] and 1 to 3 µM on Cbl-b [2] (setting [4]). Further, the Kd on Cbl-b (residues 36-427) lay within 3 to 10 µM.

Regarding `CNc1ccnc(C(=O)Nc2cccc([C@H](C)Sc3nncn3C)c2)c1` [Compound 60, (S)-N-(3-(1-((4-methyl-4H-1,2,4-triazol-3-yl)thio)ethyl)phenyl)-4-(methylamino)picolinamide], the IC50 on Cbl-b [1] was at most 10 µM; at Cbl-b [2] (setting [4]), 1 to 3 µM. In addition, the Kd at Cbl-b (residues 36-427) was 3 to 10 µM.

Regarding `C[C@H](Sc1nncn1C)c1cccc(NC(=O)c2cc3cc(OCC(=O)O)ccc3cn2)c1` [Compound 305, (S)-2-((3-((3-(1-((4-methyl-4H-1,2,4-triazol-3-yl)thio)ethyl)phenyl)-carbamoyl)isoquinolin-6-yl)oxy)acetic acid], at Cbl-b [2] (setting [4]), the IC50 lay within 0.301 to 1 µM. Further, the Kd on Cbl-b (residues 36-427) was above 10 µM.

With `CNC(=O)COc1ccc2cnc(C(=O)Nc3cccc([C@@H](C)Sc4nncn4C)c3)cc2c1` [Compound 306b, (R)-N-(3-(1-(4-methyl-4H-1,2,4-triazol-3-ylthio)ethyl)phenyl)-6-(2-(methylamino)-2-oxoethoxy)isoquinoline-3-carboxamide], on Cbl-b [2] (setting [4]), the half-maximal inhibitory concentration (IC50) was 3 to 10 µM. The Kd at Cbl-b (residues 36-427) lay within 3 to 10 µM.

With `C[C@H](Sc1nncn1C)c1cccc(NC(=O)c2cc3ccc(OCC(=O)O)cc3cn2)c1` [Compound 308, (S)-2-((3-((3-(1-((4-methyl-4H-1,2,4-triazol-3-yl)thio)ethyl)phenyl)carbamoyl)isoquinolin-7-yl)oxy)acetic acid], the IC50 at Cbl-b [2] (setting [4]) is 1 to 3 µM. Besides, at Cbl-b (residues 36-427), the dissociation constant (Kd) fell in the range of 3 to 10 µM.

In the case of `C[C@H](Sc1nncn1C)c1cccc(NC(=O)c2ccc3c(OCC(=O)O)cccc3n2)c1` [Compound 309, (S)-2-(2-(3-(1-(4-methyl-4H-1,2,4-triazol-3-ylthio)ethyl)phenylcarbamoyl)quinolin-5-yloxy)acetic acid], at Cbl-b [2] (setting [4]), the IC50 lay in the range of 1 to 3 µM. This molecule returned a Kd at Cbl-b (residues 36-427) of 3 to 10 µM.

As to `CNC(=O)COc1cccc2nc(C(=O)Nc3cccc([C@H](C)Sc4nncn4C)c3)ccc12` [Compound 310, (S)-N-(3-(1-((4-methyl-4H-1,2,4-triazol-3-yl)thio)ethyl)phenyl)-5-(2-(methylamino)-2-oxoethoxy)quinoline-2-carboxamide], the IC50 on Cbl-b [2] (setting [4]) lay within 0.301 to 1 µM. In addition, the Kd on Cbl-b (residues 36-427) was 0.301 to 1 µM.

For the origin of these results see patent US20220324835A1 (Nurix Therapeutics, Inc., priority 2018, published 2022).
